Source: patent US20230023009A1, “HETEROCYCLIC COMPOUNDS AND METHODS OF USE THEREOF” (SPARCBIO LLC, priority 2020, published 2023)
Read-outs that look alike come from different tables or passages of the source.

Legend:
KRAS G12C protein = KRAS G12C protein (Homo sapiens, UniProt P01116, G12C); assay: Nucleotide exchange assay (Method III, KRAS G12C/Raf-RBD TR-FRET); assay type: biochemical; details: SOS1-mediated exchange of GDP for GTP, 18 hr compound incubation
Procedure, shortened: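 His-tagged GDP-bound KRAS G12C (25 nM in 2× mix) was preincubated with an 11-point, 3-fold compound series for 18 hr at 23° C, then SOS1/GTP was added for 1 hr. FLAG-Raf-RBD with Tb-anti-FLAG/D2-anti-His followed for 2 hr at room temperature. TR-FRET was read, and IC50 was obtained by non-linear regression.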

A549 = assay: Cell proliferation assay panel (Cell Titer-Glo, 72 hr); assay type: cell-based; details: Homo sapiens
Description: (§1) Potency of compounds was determined in cell proliferation assays in a panel of cancer cell lines. Cells were seeded in 384-well plates (Corning, Cat. #3765) at specified densities in 40 μL of culture medium and incubated overnight at 37° C. in a 5% CO2 incubator (culture conditions). With a robotic dispenser, serially diluted test compounds were added in a volume of 20 nL DMSO to wells in the culture plate to achieve the final desired concentrations of test compounds, and the cells were further incubated in culture conditions for 72 hr. The assay was terminated by addition of 25 μL of Cell Titer-Glo reagent (Promega, Madison, Wis.) to each well. Contents were mixed, the plate was incubated for 10 min at room temperature and luminescence was measured. The IC50 value of each test compound was calculated with XLFit curve fitting software. Results are shown in Table 4. ‘+++’ indicates IC50 values≤300 nM, ‘++’ indicates IC50 values between 300 nM-3 μM, and ‘+’ indicates IC50 values≥3 μM.

KYSE-410 = assay: as above; assay type: cell-based; details: Homo sapiens
Description: as §1

MIA PaCa-2 = assay: as above; assay type: cell-based; details: Homo sapiens, MIA PaCa-2, 72 h
Description: as §1

NCI-H1373 = assay: as above; assay type: cell-based; details: Homo sapiens
Description: as §1

NCI-H2030 = assay: as above; assay type: cell-based; details: Homo sapiens
Description: as §1

NCI-H2122 = assay: as above; assay type: cell-based; details: Homo sapiens
Description: as §1

NCI-H358 = assay: as above; assay type: cell-based; details: Homo sapiens
Description: as §1

SW1573 = assay: as above; assay type: cell-based; details: Homo sapiens
Description: as §1

[1] = test system: Phosphorylation of ERK in NCI-H358 cells; assay: pERK assay (Method II, homogeneous TR-FRET); assay type: cell-based; details: Homo sapiens, 4 hrs compound treatment
Description: Method II. Phosphorylation of ERK was assessed by a homogeneous TR-FRET assay (Advanced phospho-ERK (Thr202/Tyr204) cellular kit; Cat. #64AERPEH, Cisbio). In brief, NCI-H358 cells were seeded in a 384-well culture plate at a density of 6000 cells in 40 μL medium/well and grown overnight at 37° C. and 5% CO2. Each test compound was dosed in duplicate in a 10-dose 3-fold titration starting at 10 μM or 2 μM. The culture plate was then incubated for 4 hrs in the incubator. At the end of the compound treatment, the medium was removed, 35 μL of lysis buffer was added to each well, and the plate was agitated on a plate shaker for 40 mins at 4° C. An antibody cocktail of phospho-ERK1/2 Eu Cryptate antibody and Phospho-ERK1/2 d2 antibody was prepared by separately diluting the antibodies 20-fold with detection buffer and then mixing them together. 3.4 μL of antibody cocktail was dispensed to each well of an empty 384-well white ProxiPlus assay plate (Perkin Elmer), and the plate briefly centrifuged. 13.6 μL of cell lysate was then added to the antibody-containing wells, and the plate was briefly centrifuged and then incubated 2 hrs at room temperature. The plate was read on a fluorescence plate reader (Envision2104, Perkin Elmer), with an excitation wavelength of 337 nm and emission wavelengths of 615 nm and 665 nm. The IC50 value of each test compound was calculated with XLFit curve fitting software. Results are shown in Table 6. ‘+++’ indicates IC50 values≤300 nM, ‘++’ indicates IC50 values between 300 nM-3 μM, and ‘+’ indicates IC50 values≥3 μM.

[2] = test system: MIA PaCa-2 subcutaneous xenograft tumors
Description: MIA PaCa-2 cells were injected subcutaneously (10×10^6 cells in 0.2 mL of PBS with Matrigel (1:1)) into the right flanks of 6-8-week-old female BALB/c nude mice and allowed to grow until the average tumor size reached 150-200 mm^3. The mice were then stratified into treatment groups of 8 animals and treatment initiated on Day 0. Test compound or vehicle (1% Tween 80, 2% HPMC, and 97% water) was administered orally, once daily, for 14 days with an observational phase to monitor tumor growth post-treatment. Tumor size was measured twice weekly in two dimensions using a caliper, and the volume was expressed in mm^3 using the formula: V=(a×b^2/2) where a and b are the long and short diameters of the tumor, respectively. Tumor Growth Inhibition (TGI) was calculated for each group using the formula: TGI %=(1−Ti/Vi)×100, where Ti is the mean tumor volume of the treatment group on the measurement day, and Vi is the mean tumor volume of the control group on the measurement day. Animal body weight was monitored regularly as an indicator of toxicity. […] Data points represent the group mean, and error bars represent the standard error of the mean (SEM).

[3] = test system: NCI-H358 subcutaneous xenograft tumors; assay: NCI-H358 mouse xenograft model
Description: NCI-H358 cells were injected subcutaneously (5×10^6 cells in 0.1 mL of PBS) into the right flanks of 6-8-week-old female BALB/c nude mice and allowed to grow until the average tumor size reached 150-200 mm^3. The mice were then stratified into treatment groups of 4-8 animals and treatment initiated on Day 0. Test compound or vehicle (1% Tween 80, 2% HPMC, and 97% water) was administered orally, once daily, for 21 days. Tumor size was measured twice weekly in two dimensions using a caliper, and the volume was expressed in mm^3 using the formula: V=(a×b^2/2) where a and b are the long and short diameters of the tumor, respectively. Tumor Growth Inhibition (TGI) was calculated for each group using the formula: TGI %=(1−Ti/Vi)×100, where Ti is the mean tumor volume of the treatment group on the measurement day, and Vi is the mean tumor volume of the control group on the measurement day. Animal body weight was monitored regularly as an indicator of toxicity. […] Data points represent the group mean, and error bars represent the standard error of the mean (SEM).

Chain of KRAS G12C protein (P01116 1-188 isoform P01116-2 G12C): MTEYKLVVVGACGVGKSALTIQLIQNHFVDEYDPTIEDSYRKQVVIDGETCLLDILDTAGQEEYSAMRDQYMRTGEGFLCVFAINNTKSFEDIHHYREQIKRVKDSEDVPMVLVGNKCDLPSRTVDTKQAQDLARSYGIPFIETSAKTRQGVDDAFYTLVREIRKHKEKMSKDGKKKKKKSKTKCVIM

C=C(F)C(=O)N1CCN(c2nc(OC[C@@H]3CCCN3C)nc3c2CO[C@@H](c2cccc4cccc(Cl)c24)C3)C[C@@H]1CC#N (single isomer, unassigned) [43 (Isomer B)] was tested, and the IC50 (KRAS G12C protein) was no more than 300 nM, the IC50 (A549) was no less than 3000 nM and the IC50 (KYSE-410) was no less than 3000 nM. For the same molecule, the IC50 (MIA PaCa-2) was no more than 300 nM, the IC50 (NCI-H1373) was 300 to 3000 nM and the IC50 (NCI-H2030) was 300 to 3000 nM. For the same molecule, the IC50 (NCI-H2122) was 300 to 3000 nM, the IC50 (NCI-H358) was no more than 300 nM and the IC50 (SW1573) was no less than 3000 nM. For the same molecule, the IC50 [1] was no more than 300 nM, the TGI ([2]; 10 mg/kg orally once daily, Day 14 after treatment start) was 9.0% and the TGI ([2]; 30 mg/kg orally once daily, Day 14 after treatment start (day not restated for comparator)) was 75.5%. The TGI ([2]; 100 mg/kg orally once daily, Day 14 after treatment start) was 94.6%, the “tolerability (from body weight)” value ([2]; orally once daily for 14 days) was “well-tolerated” and the TGI ([3]; 10 mg/kg orally once daily, Day 20 after treatment start) was 15.1%. For the same molecule, the TGI ([3]; 30 mg/kg orally once daily, Day 20 after treatment start (day not restated for comparators)) was 43.6%, the TGI ([3]; 100 mg/kg orally once daily, Day 20 after treatment start) was 94.6% and the “tolerability (from body weight)” value ([3]; 10, 30 and 100 mg/kg orally once daily for 21 days) was “well-tolerated”. For the same molecule, the weight loss ([3]; none of the mice greater than this, 10, 30 and 100 mg/kg once daily) was no more than 10%.
